{"source": "patent US20050123576A1", "about": "“Mupirocin compositions for topical use, an improved process of making same and methods of using same” (priority 2003, published 2005)", "origin": "cited, not measured here", "key": {"[1]": {"conditions": "glycerol, mineral oil, caprylic-capric triglyceride, isopropyl myristate, isopropyl palmitate, octyl dodecanol (Eutanol G), isopropyl stearate"}, "[2]": {"conditions": "in the presence of water, acids and bases"}}, "data": [{"smiles": "C/C(=C\\C(=O)OCCCCCCCCC(=O)O)C[C@@H]1OC[C@H](C[C@@H]2O[C@H]2[C@@H](C)[C@H](C)O)[C@@H](O)[C@H]1O", "note": "[Mupirocin]", "values": [{"measurement": "solubility in pharmaceutically acceptable carriers", "setting": "[1]", "value": "insoluble"}, {"measurement": "stability (hydrolysis and rearrangement reactions)", "setting": "[2]", "value": "unstable"}]}]}
